Counter-ions that a name gives are not always drawn.
Experiment: Antagonist activity at human CCR5 expressed in HOS cells assessed as inhibition of cell fusion with HIV gp120 expressing HEK293 cells by LTR luciferase assay

Row | Compound | IC50 [µM]
1 | CCCCN1C(=O)[C@@H]([C@H](O)C(C)C)NC(=O)C12CCN(Cc1ccc(Oc3ccccc3)cc1)CC2 [(R)-1-butyl-3-((R)-1-hydroxy-2-methyl-propyl)-9-(4-phenoxy-benzyl)-1,4,9-triaza-spiro[5.5]undecane-2,5-dione hydrochloride] | 0.229
2 | CCCCN1C(=O)C(CC(C)C)NC(=O)C12CCN(Cc1ccc(Oc3ccccc3)cc1)CC2 (stereo not drawn) [rac-1-Butyl-3-isobutyl-9-(4-phenoxybenzyl)-1,4,9-triazaspiro[5.5]undecane-2,5-dione hydrochloride] | 0.851

Reference: BindingDB's records for doi:10.1016/j.bmcl.2010.12.109 (Ono Pharmaceutical, 2011)
